Assay results reported in publication PMC11239005, “Preclinical studies of RA475, a guanidine-substituted spirocyclic candidate RPN13/ADRM1 inhibitor for treatment of ovarian cancer” (PLOS ONE, 2024).
pIC50: −log10 of the molar value. Values joined by “and” are separate entries in the source; they are usually repeats but may differ in a detail not shown here. Identical values can stand only once. Counter-ions that a name gives are not always drawn.

Key:
[1] = cited from earlier work
[2] = test system: high molecular weight polyubiquitinated proteins in OVCAR3 cells; assay: Anti-ubiquitin immunoblot, OVCAR3; type: cell-based, human; conditions: Up284 0.5 μM, bortezomib 0.25 μM, ixazomib 0.25 μM, RA475 0.5 or 1 μM
Description: (§1) Cell lysate prepared in MPER (Pierce) from each sample was normalized by total protein concentration using the bicinchoninic acid assay and bovine serum albumin standards. Normalized samples were subjected to SDS-PAGE, transferred to PVDF membranes and analyzed by Western blot using antibodies specific to ubiquitin (P4D1, sc-8017, Santa Cruz), PARP (#9542, […]), actin (#66009, Protein Tech Group), Tubulin(#66031, Protein Tech Group), ADRM1/RPN13 (D9Z1U, #12019, Cell Signaling), USP14 (Cell Signal, # 8159), Annexin V (#559763, BD Pharmingen), and for secondary antibodies we utilized either horseradish peroxidase (HRP)-linked anti-mouse IgG or anti-rabbit IgG (GE Healthcare UK Ltd), HRP-linked streptavidin (N100, Thermo Fisher) at the recommended dilution (1:5000).
(§2) Accumulation of high molecular weight polyubiquitinated proteins (polyUb) is a classical phenomenon of proteasome function inhibition due to the stabilization of its substrate.
(§3) Fig 3 Impact of RA475 on proteasome function. […] Actin was used as loading control. […] C) 4T1 and HCC1806 cells stably expressing 4UbFL were treated with compounds at indicated doses for 4 h and imaged by IVIS200 after the addition of luciferin substrate (50 μL, 7mg/mL in PBS). D) Sub-confluent cultures of ES2 cells stably expressing 4UbFL were seeded at 10,000 cells/well in 96-well microtiter plates. At 18 h post transfection, cells were treated with compounds or vehicle (DMSO) at the doses indicated. After a 4 h incubation, the cells were lysed and the luciferase activity in each cell lysate was determined with a luciferase assay kit (Promega) according to the manufacturer’s instructions. Bioluminescence was measured by using a luminometer (Glomax Multidetection system, Promega) E) A patch was shaved of hair on one leg of CD-1 mice, and 10 μg 4UbFL plasmid in 20 μL of PBS was injected into the quadriceps femoralis muscle followed immediately by injection of the 2 Needle Array to 5 mm depth encompassing the injection site and square wave electroporation (ElectroSquarePorator 833, BTX-2 Needle array 5mm gap, Harvard apparatus) delivered as eight pulses at 106V for 20 ms with 200 ms intervals. One day post electroporation, mice were anesthetized with isoflurane, injected IP with luciferin (0.3 mg in 100 μL water) and optical imaging was performed to determine basal level luciferase expression. Images were acquired for 10 min with a Xenogen IVIS 200 (Caliper, Hopkinton, MA). Equally sized areas were analyzed using Living Image 2.20 software. Mice were imaged weekly during treatment. […]

MDA-MB-468 cells = assay: Surface Annexin V display by flow cytometry, MDA-MB-468; type: cell-based; conditions: MDA-MB-468, 12 h; RA475 1 or 2 μM, ixazomib 1 μM
Description: The percentage of cells initiating apoptosis was assessed with the annexin V FITC assay kit. The cells (2 × 10^5 cells/well) were treated with the described compounds at selected concentrations for 12 h or 16 h, as indicated. The cells were then collected, washed with PBS, resuspended in 100 μL of annexin V-FITC and 7-AAD dual-stain solution (3 μL Annexin V and 3 μL 7AAD, Catalog Number; 559763-BD bioscience), and incubated 20 min in the dark. The samples were then analyzed via flow cytometry using FlowJo V10 software. All experiments were repeated three times.
Supplementary file pone.0305710.s006.tif: S6 Fig RA475 induced apoptosis in a triple negative breast cancer cell line. […] (TIF)

PEA2 = assay: MTT cytotoxicity assay, PEA2; type: cell-based; conditions: Homo sapiens; PEA2, 72 h, MTT; read-out: IC50
Description: (§4) All cell lines were obtained from the American Type Culture Collection (ATCC) and cultured in the specified medium supplemented with 10% fetal bovine serum, 100 IU/mL penicillin, and 100 μg/mL streptomycin at 37°C in a humidified 5% CO2/95% air incubator. Synthesis of new compounds is described in S1 File, and >95% purity of RA475, Up284 and its analogs were confirmed by NMR and MS. To assess drug cytotoxicity, cells were seeded at 2,500 cells/well (10,000 cells/well for MM lines) in 100 μL medium in 96-well plate as triplicates and after 24 h treated with compounds for a further 72 h. To assess cytotoxicity, the cells were incubated for 2 h at 37°C according to the manufacturer’s protocol with the Thiazolyl Blue Tetrazolium Bromide (20 μL/well of 5 mg/mL stock solution in water) (Sigma, M5655) and A570 measured using a Benchmark Plus microplate spectrophotometer (BIO-RAD). IC50 was estimated using Graphpad Prism 7 software.
(§5) Modifications of Up284 were sought to improve its drug-like properties without significant compromise of its activity in vivo, and several new compounds were synthesized (S1 File). Based on our prior studies of its pharmacophore, the central ring nitrogen was the most logical for addition of charged moieties, including RA475 and RA484. We also examined a change to either 3,4 spiro rings (RA477, RA479), or addition of 3-Fluoro substitutions (RA482) (S1 File). Our focus is developing iRPN13 to treat ovarian cancer resistant to standard of care drug regimens.

PEA1 cells = assay: MTT cytotoxicity assay, PEA1; type: cell-based, human; conditions: Homo sapiens, PEA1, 72 h
Description: as §4, §5
A wash-out experiment was performed to assess reversibility of the toxicity. PEA1 cells were treated with RA475 for 1 h before the medium was replaced with fresh culture medium, and the cells were then allowed to grow for another 71 hours (PEA1-WO). In parallel, PEA1 cells were incubated with RA475 continuously for 72 h. […] Possible reasons include slow uptake of RA475, reversible binding and neutralization by antioxidants in the medium.
To study the effect of RA475 in combination with approved therapeutics (DNA damaging agents or radiation) an MTT assay was performed using various concentrations of both drugs. Briefly PEA1 and OVCAR3 cells were each treated with drug combination (RA475 plus cisplatin) for 72 h in a checker board analysis and cell viability was measured using MTT assay. The data were analyzed and plotted using the Synergy Finder web application.

[3] = human and mouse microsomes; cited from earlier work
[4] = test system: high molecular weight polyubiquitinated proteins in SKOV3 cells; assay: Anti-ubiquitin immunoblot, SKOV3; type: cell-based; conditions: Up284 and RA475 0.5 and 1 μM, RA190 1 μM
Description: as §1, §2
as §3, with “D) Sub-confluent cultures of ES2 cells stably expressing 4UbFL were seeded at 10,000 cells/well in 96-well microtiter plates. At 18 h post transfection, cells were treated with compounds or vehicle (DMSO) at the doses indicated.” left out, “One day post electroporation, mice were anesthetized with isoflurane, injected IP with luciferin (0.3 mg in 100 μL water) and optical imaging was performed to determine basal level luciferase expression. Images were acquired for 10 min with a Xenogen IVIS 200 (Caliper, Hopkinton, MA).” left out, “software.” for “software. Mice were imaged weekly during treatment.”

[5] = LogD measurement, shake-flask octanol/PBS pH 7.4; type: physicochemical; conditions: octanol/PBS pH 7.4, single injections 1-3
Description: Incubations were carried out in Eppendorf-type polypropylene microtubes in triplicates. A 2.5 μL aliquot of 20 mM DMSO stock of a test compound was added into the previously mutually saturated mixture containing 500 μL of PBS (pH 7.4) and 500 μL of octanol. The solution was allowed to mix in a rotator for 1 hour at 30 rpm. Phase separation was assured by centrifugation for 2 min at 6000 rpm. The octanol phase was diluted 100-fold with 40% acetonitrile, and the aqueous phase (PBS buffer) was diluted 10-fold. The samples (both phases) were analyzed using an HPLC system coupled with a tandem mass spectrometer. […] Calculations of the partition ratios were carried out using the equation below. D=do.So/dp.Sp where:
So–peak area of the analyte in octanol phase
SP–peak area of the analyte in PBS buffer
do–dilution coefficient for octanol phase

[6] = test system: spontaneous genetically-engineered peritoneal tumor (shp53, AKT, c-Myc); assay: Spontaneous GEMM of primary peritoneal/ovarian cancer; type: in vivo, mouse; conditions: C57BL/6; RA475 40 mg/kg IP every 3 days (12 doses); cisplatin 5 mg/Kg weekly (5 doses alone, 3 in combination)
Description: To induce IP tumor formation in immunocompetent mice, oncogenes (shp53, AKT, c-Myc), luciferase and the Sleeping Beauty (SB) transposase (10 μg/plasmid) were diluted in 500 μL of PBS and injected IP into female C57BL/6 mice. The mice were anesthetized by intramuscular injection of 50–100μL of a cocktail of ketamine 16 mg/mL / 3 mg/mL xylazine. The plasmid-injected mice were electroporated (EP) by the BTX ECM 830 square wave EP generator (BTX) (5 pulses, 200 V for 100 ms/pulse, 100 ms intervals between each pulse) with the caliper electrode (BTX) held across the waist of mouse. The mice were followed by IVIS imaging weekly for tracking tumor growth. The mice were sacrificed when the bioluminescence signal reached 10^9 photons/sec/cm^2/sr, or had enlarged abdomens due to the production of ascites, or had health conditions and/or criteria under which early euthanasia was required by the protocol. To track peritoneal tumor growth, bioluminescence imaging was performed by the IVIS Spectrum2000 (PerkinElmer) as the plasmid expressing SB transposase also produces luciferase. Briefly, the mice were injected IP with D-luciferin (GoldBio). After 10 min, the mice were anesthetized with isoflurane, and imaged by the IVIS Spectrum under the auto exposure mode. Bioluminescence in the peritoneal region was quantified as total photon counts/sec/cm^2/sr using Living Image 3.0 Software (Perkin Elmer).
GEMM better mimic the spontaneous development of cancers in an immune competent host than transplantable tumor lines. Female C57BL/6 mice were co-injected IP with sleeping beauty vector and plasmids expressing carrying shp53, AKT, c-Myc and firefly luciferase genes, followed by electroporation (EP) to deliver these plasmid DNA into the peritoneal cavity cells wherein they integrate randomly into their genome. After 7 days mice were imaged by IVIS200 for bioluminescence and randomized. Four groups (n = 8) were treated IP with vehicle or RA475 (40mg/kg, IP, every 3 days) or Cisplatin (5 mg/Kg, once a week) or the combination of RA475 (40mg/Kg, IP, every 3 days) plus Cisplatin (5 mg/Kg, once a week). […] While cisplatin reduced tumor growth, it led to severe toxicity including weight loss >20% that was not evident with RA475 alone.
Fig 7 Administration of RA475, cisplatin or the combination to mice bearing spontaneous, genetically-engineered model ovarian/peritoneal cancer. Female C57BL/6 mice were co-injected IP with sleeping beauty vector and plasmids expressing carrying shp53, AKT, c-Myc and firefly luciferase genes, followed by electroporation (EP) to deliver these plasmid DNA into the peritoneal cavity cells wherein they integrate randomly into their genome. After 7 days mice were imaged by Xenogen IVIS200 for bioluminescence and randomized. […]

Compound	pIC50 (PEA2)	pIC50 (PEA1 cells)	also measured
CC(C)C[C@H](NC(=O)[C@H](CCc1ccccc1)NC(=O)CN1CCOCC1)C(=O)N[C@@H](Cc1ccccc1)C(=O)N[C@@H](CC(C)C)C(=O)[C@@]1(C)CO1 [Carfilzomib, carfilzomib]			access to the brain [1]: mostly excluded from the brain
CC(C)C[C@H](NC(=O)CNC(=O)c1cc(Cl)ccc1Cl)B(O)O [ixazomib]			forms of polyUb induced [2]: only induced the smaller poly Ub forms, typically <250kDa; apoptosis by surface Annexin V display (MDA-MB-468 cells): initiated apoptosis; access to the brain [1]: mostly excluded from the brain
N#Cc1ccc(/C=C2/C(=O)/C(=C/c3ccc(C#N)cc3)C23CCN(C(=N)N)C3)cc1 [RA477, 1,3-bis((E)-4-cyanobenzylidene)-2-oxo-6-azaspiro[3.4]octane-6-carboximidamide dihydrochloride]	6.51	6.48	
N#Cc1ccc(/C=C2/C(=O)/C(=C/c3ccc(C#N)cc3)C23CCN(C(=N)N2CCOCC2)CC3)cc1 [RA484, 4,4'-((1E,1'E)-(7-(imino(morpholino)methyl)-2-oxo-7-azaspiro[3.5]nonane-1,3-diylidene)bis(methaneylylidene))dibenzonitrile]	6.28	6.32	
N#Cc1ccc(/C=C2/C(=O)/C(=C/c3ccc(C#N)c(F)c3)C23CCN(C(=N)N)CC3)cc1F [RA482, 1,3-bis((E)-4-cyano-3-fluorobenzylidene)-2-oxo-7-azaspiro[3.5]nonane-7-carboximidamide dihydrochloride]	6.39	6.40	
Cl.N[C@@H](Cc1ccccc1)C(=O)N1C/C(=C/c2ccc(Cl)c(Cl)c2)C(=O)/C(=C\c2ccc(Cl)c(Cl)c2)C1 [RA190]			breakdown in microsomes compared with RA475 [3]: more rapidly broken down; accumulation of high molecular weight polyubiquitinated proteins [4]: robust accumulation of polyUb
N#Cc1ccc(/C=C2/C(=O)/C(=C/c3ccc(C#N)c(F)c3)C23CCN(C(=N)N)C3)cc1F [RA479, 1,3-bis((E)-4-cyano-3-fluorobenzylidene)-2-oxo-6-azaspiro[3.4]octane-6-carboximidamide dihydrochloride]	6.49	6.46	
COC(=O)Nc1nc2ccc(C(=O)c3ccccc3)cc2[nH]1 [Mebendazole]			D [5]: 8.61E+02 and 8.97E+02 and 8.85E+02
N.N.[Cl][Pt][Cl] [cisplatin, reference compound]			tumor burden by bioluminescence [6]: significantly better delayed, but did not reduce, tumor burden
